In patent US20220296595A1, “CDK INHIBITORS” (QILU REGOR THERAPEUTICS INC., priority 2019, published 2022):
pIC50: −log10 of the molar value. Like-named read-outs stand apart in the source and are kept apart here.

Experiments:
[1] = target: T1, CDK6/CyclinD3 (Homo sapiens, UniProt Q00534); experiment: Assay for inhibition of CDK6/CyclinD3 (Caliper microfluidic kinase assay); format: biochemical
T1 construct: purchased Carna 04-107
Method in brief: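 Caliper mobility-shift readout of FAM-labelled peptide (FL-34, 1 μM) phosphorylation by 2 nM CDK6/CyclinD3 at 300 μM ATP in HEPES pH 7.5 buffer with MgCl2, DTT; 3 h at room temperature, EDTA stop. IC50 from 4-parameter sigmoidal fit.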

[2] = target: T2, CDK2/CyclinE1 (Homo sapiens, UniProt P24941); experiment: Assay for inhibition of CDK2/CyclinE1 (Caliper microfluidic kinase assay); format: biochemical; conditions: read-out: CDK2 IC50
T2 construct: purchased SignalChem C29-18G
Method in brief: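 Caliper microfluidic mobility-shift assay: 5 nM CDK2/CyclinE1, 100 μM ATP, 5 μM FL-18 peptide (5-FAM-QSPKKG-NH2) in pH 7.5 HEPES buffer with MgCl2, DTT, BSA, Triton X-100. Incubated 3 hours at room temperature, EDTA-stopped; IC50 from 4-parameter sigmoidal fit.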

[3] = test system: T47D breast cancer cells; experiment: Anti-proliferation assay in T47D cell (Cyquant, day 6); format: cell-based, human; conditions: Homo sapiens, T47D, anti-proliferation, T47D cells; read-out: T47D IC50
Method in brief: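 Cells were grown in RPMI 1640 with 10% FBS at 37 °C and dosed the day after plating at ten concentrations, 10 μM to 0.51 nM in 3-fold steps. CyQuant fluorescence (ex 485/em 535 nm) was read on day 6. IC50 was fitted from baseline-subtracted viability curves, with the baseline read after overnight culture.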

[4] = test system: phosphorylation of Retinoblastoma Protein (pRb Ser807/811 or Ser780) in T47D cells; experiment: Inhibition of phosphorylation of retinoblastoma protein (pRb) in T47D cell (ELISA); format: cell-based, human; conditions: Homo sapiens, T47D, read-out: Phospho T47D Ser807 IC50, pRb Ser807 phosphorylation, T47D cells
Method in brief: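 T47D cells in RPMI 1640 + 10% FBS, adhered overnight, then treated 24 h with 3-fold compound titrations (top concentration […]). Lysates assayed by sandwich ELISA for pRb Ser807/811 or Ser780 with HRP/TMB detection. IC50 from 4-parameter sigmoidal fit.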

[5] = target: T3, CDK4/CyclinD1 (Homo sapiens, UniProt P11802); experiment: Assay for inhibition of CDK4/CyclinD1 (Caliper microfluidic kinase assay); format: biochemical
T3 construct: purchased Thermofisher PR8064A
Method in brief: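 Caliper microfluidic mobility-shift assay tracking phosphorylation of 1 μM FL-34 peptide by 1 nM CDK4/CyclinD1 with 200 μM ATP in HEPES pH 7.5 buffer with 10 mM MgCl2. Reaction ran 3 h at room temperature, was stopped with EDTA, and IC50 came from a 4-parameter sigmoidal fit.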

T1 sequence (Q00534 whole entry): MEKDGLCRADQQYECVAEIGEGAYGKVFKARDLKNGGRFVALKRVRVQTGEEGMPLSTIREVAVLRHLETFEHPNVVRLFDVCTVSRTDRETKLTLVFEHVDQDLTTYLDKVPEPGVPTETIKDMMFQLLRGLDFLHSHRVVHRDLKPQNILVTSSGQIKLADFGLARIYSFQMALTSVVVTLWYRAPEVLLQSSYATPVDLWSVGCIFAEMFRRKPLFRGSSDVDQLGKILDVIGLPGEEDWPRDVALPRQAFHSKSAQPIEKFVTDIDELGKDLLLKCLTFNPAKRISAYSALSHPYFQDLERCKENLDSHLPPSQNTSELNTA
T1 sequence (P30281 whole entry partner): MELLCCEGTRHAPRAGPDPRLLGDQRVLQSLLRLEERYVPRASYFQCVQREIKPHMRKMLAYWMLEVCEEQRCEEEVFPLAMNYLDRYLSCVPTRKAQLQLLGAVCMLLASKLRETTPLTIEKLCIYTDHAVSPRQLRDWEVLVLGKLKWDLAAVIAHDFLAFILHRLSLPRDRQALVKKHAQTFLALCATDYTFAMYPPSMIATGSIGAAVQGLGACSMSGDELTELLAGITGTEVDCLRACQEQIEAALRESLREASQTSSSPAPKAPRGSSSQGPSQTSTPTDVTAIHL
T3 sequence (P11802 whole entry): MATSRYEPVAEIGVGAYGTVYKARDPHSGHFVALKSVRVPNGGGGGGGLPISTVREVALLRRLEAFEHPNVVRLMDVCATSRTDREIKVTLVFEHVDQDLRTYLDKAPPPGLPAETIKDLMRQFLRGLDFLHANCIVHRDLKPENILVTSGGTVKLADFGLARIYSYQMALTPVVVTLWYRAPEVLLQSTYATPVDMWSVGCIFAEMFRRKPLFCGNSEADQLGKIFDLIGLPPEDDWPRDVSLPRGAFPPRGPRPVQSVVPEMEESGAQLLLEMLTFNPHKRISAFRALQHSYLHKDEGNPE
T3 sequence (P24385 whole entry partner): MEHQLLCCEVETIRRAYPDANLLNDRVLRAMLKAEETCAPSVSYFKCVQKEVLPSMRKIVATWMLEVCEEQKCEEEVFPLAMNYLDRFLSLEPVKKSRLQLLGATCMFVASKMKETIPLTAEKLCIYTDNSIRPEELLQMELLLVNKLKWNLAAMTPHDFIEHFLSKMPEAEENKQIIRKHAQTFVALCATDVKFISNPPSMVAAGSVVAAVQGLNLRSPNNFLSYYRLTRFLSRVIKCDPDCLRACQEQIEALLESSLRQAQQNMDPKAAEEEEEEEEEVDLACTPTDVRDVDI

Row | Structure (SMILES) | pIC50 ([1]; CDK6/CyclinD3, 300 μM ATP) | pIC50 ([2]; CDK2/CyclinE1, 100 μM ATP) | pIC50 [3] | pIC50 [4] | pIC50 ([5]; CDK4/CyclinD1, 200 μM ATP) | pIC50 ([1]; CDK6/CyclinD3) | pIC50 ([2]; CDK2/CyclinE1) | pIC50 ([5]; CDK4/CyclinD1)
1 | Cc1cnc(Nc2ccc(N3CCC(N(C)C)CC3=O)cn2)nc1-c1cc2c(ncn2C(C)C)c(F)n1 (stereo not drawn) [compound 279] | 7.00 to 8.00 | 6.00 to 7.00 | > 7.00 | > 7.00 | > 8.00 |  |  | 
2 | COc1nc(-c2nc(Nc3ccc(N4CCOCC4=O)cn3)ncc2F)cc2c1ncn2C(C)C [compound 78] |  |  | > 7.00 | > 7.00 |  | 7.00 to 8.00 | 6.00 to 7.00 | > 8.00
3 | COc1nc(-c2ccnc(Nc3ccc(CN4CCC(C#N)CC4)cn3)n2)cc2c1ncn2C(C)C [compound 68] |  |  | 6.30 to 7.00 | > 7.00 |  | 7.00 to 8.00 | < 6.00 | > 8.00
4 | CC(C)c1cnn2ccc(-c3nc(Nc4ccc(N5CC6CCC(CC5=O)N6)cn4)ncc3F)cc12 (stereo not drawn) [compound 199] | > 8.00 | 7.00 to 8.00 | > 7.00 | > 7.00 | > 8.00 |  |  | 
5 | COc1nc(-c2nc(Nc3ccc(N4CCN(C5COC5)CC4=O)cn3)ncc2F)cc2c1ncn2C(C)C [compound 129] | 7.00 to 8.00 | < 6.00 | 6.30 to 7.00 | > 7.00 | > 8.00 |  |  | 
6 | COc1nc(-c2ccnc(Nc3ccc(N4CCC(N5CC(F)C5)CC4=O)cn3)n2)cc2c1ncn2C(C)C (stereo not drawn) [compound 99] |  |  | > 7.00 | > 7.00 |  | 7.00 to 8.00 | 6.00 to 7.00 | > 8.00
7 | CC(C)c1cnn2ccc(-c3ccnc(Nc4ccc(N5CCN(CCO)CC5=O)cn4)n3)cc12 [compound 237] | 7.00 to 8.00 | 7.00 to 8.00 | > 7.00 | > 7.00 | > 8.00 |  |  | 
8 | CN(C)C1CCN(c2ccc(Nc3nccc(-c4cc(F)c5c(c4)C(C)(C)CO5)n3)nc2)C(=O)C1 (stereo not drawn) [compound 259] | 7.00 to 8.00 | 7.00 to 8.00 | > 7.00 | > 7.00 | > 8.00 |  |  | 
9 | COc1nc(-c2ccnc(Nc3ccc(N4CCC(C)(N)CC4)cn3)n2)cc2c1ncn2C(C)C [compound 118] | 7.00 to 8.00 | < 6.00 | 6.30 to 7.00 | > 7.00 | > 8.00 |  |  | 
10 | CC(C)n1cnc2c(F)nc(-c3ccnc(Nc4ccc(N5CCCNC5=O)cc4)n3)cc21 [compound 282] | > 8.00 | > 8.00 | > 7.00 | > 7.00 | > 8.00 |  |  | 
11 | COc1nc(-c2ccnc(Nc3ccc(N4CCC(N5CC(F)(F)C5)CC4=O)cn3)n2)cc2c1ncn2C(C)C (stereo not drawn) [compound 315] |  |  | 6.30 to 7.00 | > 7.00 |  | 7.00 to 8.00 | 6.00 to 7.00 | > 8.00
12 | CC(C)c1cnn2ccc(-c3ccnc(Nc4ccc(N5CCC(C)(N)CC5=O)cc4)n3)cc12 (stereo not drawn) [compound 202] | > 8.00 | > 8.00 | > 7.00 | > 7.00 | > 8.00 |  |  | 
13 | CC(C)(C)c1cnn2ccc(-c3ccnc(Nc4ccc(N5CCNCCC5=O)cn4)n3)cc12 [compound 197] | 7.00 to 8.00 | 7.00 to 8.00 | > 7.00 | > 7.00 | > 8.00 |  |  | 
14 | CC(C)c1cnn2ccc(-c3ccnc(Nc4ccc(N5CCN(C6CCNCC6)CC5=O)cn4)n3)cc12 [compound 41] | 7.00 to 8.00 | 7.00 to 8.00 | > 7.00 | > 7.00 | > 8.00 |  |  | 
15 | CC(C)c1cnn2ccc(-c3nc(Nc4ccc(N5CCN(C6COC6)CCC5=O)cn4)ncc3F)cc12 [Synthetic Example 43] | 7.00 to 8.00 | 7.00 to 8.00 | > 7.00 | > 7.00 | > 8.00 |  |  | 
16 | COc1nc(-c2nc(Nc3ccc(N4CCN(C5COC5)CC4=O)cn3)ncc2F)cc2c1nc(C)n2C(C)C [compound 131] | 7.00 to 8.00 | < 6.00 | 6.30 to 7.00 | 6.30 to 7.00 | > 8.00 |  |  | 
17 | CC(C)c1cnn2ccc(-c3ccnc(Nc4ccc(N5CCOCC5=O)cc4F)n3)cc12 [compound 164] | 7.00 to 8.00 | > 8.00 | > 7.00 | > 7.00 | > 8.00 |  |  | 

Row | Structure (SMILES) | pIC50 ([1]; CDK6/CyclinD3, 300 μM ATP) | pIC50 ([2]; CDK2/CyclinE1, 100 μM ATP) | pIC50 [3] | pIC50 [4] | pIC50 ([5]; CDK4/CyclinD1, 200 μM ATP) | pIC50 ([1]; CDK6/CyclinD3) | pIC50 ([2]; CDK2/CyclinE1) | pIC50 ([5]; CDK4/CyclinD1)
18 | COc1nc(-c2nc(Nc3ccc(N4CCNCC4)cn3)ncc2F)cc2c1nc(C)n2C(C)C [Synthetic Example 106] | 7.00 to 8.00 | < 6.00 | 6.30 to 7.00 | > 7.00 | > 8.00 |  |  | 
19 | CC(C)c1cnn2ccc(-c3ccnc(Nc4ccc(C(=O)N(C)C)cc4)n3)cc12 [compound 167] | 7.00 to 8.00 | > 8.00 | > 7.00 | > 7.00 | > 8.00 |  |  | 
20 | CC(C)n1cnc2c(F)nc(-c3ccnc(Nc4ccc(N5CCC(N(C)C)CC5=O)cn4)n3)cc21 (stereo not drawn) [compound 270] | > 8.00 | 7.00 to 8.00 | > 7.00 | > 7.00 | > 8.00 |  |  | 
21 | COc1nc(-c2nc(Nc3ccc(N4CCN(CCF)CC4=O)cn3)ncc2F)cc2c1ncn2C(C)C [compound 126] | 7.00 to 8.00 | 6.00 to 7.00 | 6.30 to 7.00 | 6.30 to 7.00 | > 8.00 |  |  | 
22 | CC(C)n1cnc2c(F)nc(-c3ccnc(Nc4ccc(N5CCOCC5=O)cn4)n3)cc21 [Synthetic Example 61] | 7.00 to 8.00 | 7.00 to 8.00 | > 7.00 | > 7.00 | > 8.00 |  |  | 
23 | Cc1nc2c(F)nc(-c3ccnc(Nc4ccc(N5CCNCC5=O)cn4)n3)cc2n1C(C)C [compound 276] | > 8.00 | 7.00 to 8.00 | > 7.00 | > 7.00 | > 8.00 |  |  | 
24 | CCN1CCC(COc2cc(Nc3ncc(F)c(-c4ccn5ncc(C(C)C)c5c4)n3)ccn2)CC1 [compound 45] | 7.00 to 8.00 | > 8.00 | 6.30 to 7.00 | 6.00 to 6.30 | > 8.00 |  |  | 
25 | CC(C)n1cnc2c(F)nc(-c3ccnc(Nc4ccc(N5CCCC(N)C5=O)cc4)n3)cc21 (stereo not drawn) [compound 293] | > 8.00 | 7.00 to 8.00 | > 7.00 | > 7.00 | > 8.00 |  |  | 
26 | COc1nc(-c2nc(Nc3ccc(N4CCC(N(C)C)CC4=O)cn3)ncc2F)cc2c1nc(C)n2C(C)C (stereo not drawn) [Synthetic Example 62, 4-(dimethylamino)-1-[6-[[5-fluoro-4-(1-isopropyl-4-methoxy-2-methyl-imidazo[4,5-c]pyridin-6-yl)pyrimidin-2-yl]amino]-3-pyridyl]piperidin-2-one] | 7.00 to 8.00 | < 6.00 | > 7.00 | > 7.00 | > 8.00 |  |  | 
27 | COc1nc(-c2ccnc(Nc3ccc(N4CCC(N5CCC5)CC4=O)cn3)n2)cc2c1ncn2C(C)C (stereo not drawn) [compound 314] |  |  | > 7.00 | > 7.00 |  | 7.00 to 8.00 | 7.00 to 8.00 | > 8.00
28 | COc1nc(-c2ccnc(Nc3ccc(N4CCN(CCF)CC4=O)cn3)n2)cc2c1ncn2C(C)C [compound 122] | 7.00 to 8.00 | 6.00 to 7.00 | > 7.00 | > 7.00 | > 8.00 |  |  | 
29 | CC(C)n1cnc2c1CN(c1ccnc(Nc3ccc(N4CCOCC4=O)cn3)n1)CC2 [Synthetic Example 57] | 6.00 to 7.00 | 7.00 to 8.00 | 6.30 to 7.00 | > 7.00 | > 8.00 |  |  | 
30 | CC(C)c1cnn2ccc(-c3ccnc(Nc4ccc(N5CCCC(N)C5=O)cc4)n3)cc12 (stereo not drawn) [compound 214] | > 8.00 | > 8.00 | > 7.00 | > 7.00 | > 8.00 |  |  | 
31 | CC(C)c1cnn2ccc(-c3ccnc(Nc4ccc(N5CCC(N)CC5=O)cn4)n3)cc12 (stereo not drawn) [compound 203] | 7.00 to 8.00 | > 8.00 | > 7.00 | > 7.00 | > 8.00 |  |  | 
32 | CC(C)c1cnn2cc(-c3ccnc(Nc4ccc(N5CCNCCC5=O)cn4)n3)ccc12 [compound 31] | 7.00 to 8.00 | 7.00 to 8.00 | > 7.00 | > 7.00 | > 8.00 |  |  | 
33 | CC(C)c1cnn2ccc(-c3ccnc(Nc4ccc(N5CC(N(C)C)CC5=O)cn4)n3)cc12 (stereo not drawn) [Synthetic Example 39] | 7.00 to 8.00 | 7.00 to 8.00 | > 7.00 | > 7.00 | > 8.00 |  |  | 
